In the NIST ThermoML archive (doi:10.1016/j.tca.2017.02.015):

Assays:
[1] = molar heat capacity at constant pressure; xn = mol fraction of the nth substance listed; details: Liquid, Flow calorimetry
[2] = molar heat capacity at constant pressure; details: Liquid, Flow calorimetry

CCCCCCCCCCCC(=O)OC [methyl dodecanoate] + CCCCCCCCCC(=O)OC
[1]
Details | molar heat capacity at constant pressure [J/K/mol]
313.71 K, 100 kPa, x1 = 0.5001 | 414.9
313.82 K, 4060 kPa, x1 = 0.5001 | 413.3
313.83 K, 8100 kPa, x1 = 0.5001 | 412.3
313.97 K, 100 kPa, x1 = 1 | 442.6
313.99 K, 4040 kPa, x1 = 1 | 441.6
313.99 K, 12140 kPa, x1 = 0.5001 | 410.1
314.01 K, 100 kPa, x1 = 0.6999 | 426.4
314.01 K, 16150 kPa, x1 = 0.5001 | 408.9
314.06 K, 8070 kPa, x1 = 1 | 439.5
314.08 K, 4080 kPa, x1 = 0.6999 | 425.1
314.09 K, 12160 kPa, x1 = 1 | 438.3
314.14 K, 16180 kPa, x1 = 1 | 436.9
314.17 K, 12080 kPa, x1 = 0.6999 | 421.2
314.18 K, 8140 kPa, x1 = 0.6999 | 422.7
314.21 K, 16150 kPa, x1 = 0.6999 | 419.4
314.37 K, 100 kPa, x1 = 0.3001 | 403.7
314.53 K, 4090 kPa, x1 = 0.3001 | 402.2
314.71 K, 8010 kPa, x1 = 0.3001 | 400.6
314.95 K, 12020 kPa, x1 = 0.3001 | 397.7
315.06 K, 16080 kPa, x1 = 0.3001 | 395.6
323.53 K, 100 kPa, x1 = 0.3001 | 412
323.58 K, 4100 kPa, x1 = 0.3001 | 409.5
323.69 K, 8070 kPa, x1 = 0.3001 | 406.9
323.84 K, 12080 kPa, x1 = 0.3001 | 403.9
323.84 K, 12090 kPa, x1 = 1 | 444.8
323.88 K, 100 kPa, x1 = 1 | 449.5
323.93 K, 4070 kPa, x1 = 1 | 447.2
323.94 K, 16080 kPa, x1 = 1 | 443.3
324.01 K, 8060 kPa, x1 = 1 | 445.8
324.05 K, 100 kPa, x1 = 0.6999 | 435.5
324.08 K, 4120 kPa, x1 = 0.6999 | 433.4
324.13 K, 8050 kPa, x1 = 0.6999 | 431.3
324.19 K, 12080 kPa, x1 = 0.6999 | 428.2
324.24 K, 16120 kPa, x1 = 0.6999 | 426.4
324.39 K, 16190 kPa, x1 = 0.3001 | 400.5
324.79 K, 100 kPa, x1 = 0.5001 | 424.4
324.79 K, 4150 kPa, x1 = 0.5001 | 421.6
325.01 K, 8140 kPa, x1 = 0.5001 | 418.7
325.06 K, 12110 kPa, x1 = 0.5001 | 416.1
325.2 K, 16230 kPa, x1 = 0.5001 | 413.7
333.55 K, 100 kPa, x1 = 0.3001 | 418.3
333.71 K, 100 kPa, x1 = 0.6999 | 442.8
333.76 K, 4130 kPa, x1 = 0.3001 | 415.8
333.79 K, 8110 kPa, x1 = 0.3001 | 413.5
333.88 K, 100 kPa, x1 = 1 | 456.4
333.96 K, 4050 kPa, x1 = 1 | 453.6
333.97 K, 12160 kPa, x1 = 0.6999 | 434.7
333.98 K, 4150 kPa, x1 = 0.6999 | 440.9
334 K, 8050 kPa, x1 = 1 | 452.1
334.03 K, 12080 kPa, x1 = 0.3001 | 411.7
334.04 K, 8040 kPa, x1 = 0.6999 | 439
334.04 K, 16170 kPa, x1 = 0.6999 | 431.9
334.05 K, 12060 kPa, x1 = 1 | 450.5
334.11 K, 16170 kPa, x1 = 1 | 448
334.12 K, 100 kPa, x1 = 0.5001 | 431.7
334.21 K, 16110 kPa, x1 = 0.3001 | 408.4
334.33 K, 8140 kPa, x1 = 0.5001 | 425.5
334.53 K, 4120 kPa, x1 = 0.5001 | 428.8
334.6 K, 12200 kPa, x1 = 0.5001 | 423.1
334.84 K, 16030 kPa, x1 = 0.5001 | 420.7

CCCCCCCCCC(=O)OC [methyl decanoate]
[2]
Details | molar heat capacity at constant pressure [J/K/mol]
313.71 K, 100 kPa | 383.9
313.82 K, 4070 kPa | 382.1
313.83 K, 8030 kPa | 380.5
313.99 K, 12010 kPa | 378.5
314.01 K, 16140 kPa | 376.6
324.79 K, 100 kPa | 387.6
324.79 K, 4070 kPa | 386
325.01 K, 8030 kPa | 384.4
325.06 K, 12010 kPa | 382.5
325.2 K, 16140 kPa | 379.3
334.12 K, 100 kPa | 393.2
334.33 K, 8030 kPa | 388.3
334.53 K, 4070 kPa | 390.3
334.6 K, 12010 kPa | 386.2
334.84 K, 16140 kPa | 384.2

CCCCCCCCCCCC(=O)OC [methyl dodecanoate]
[2]
Details | molar heat capacity at constant pressure [J/K/mol]
313.97 K, 100 kPa | 442.6
313.99 K, 4040 kPa | 441.6
314.06 K, 8070 kPa | 439.5
314.09 K, 12160 kPa | 438.3
314.14 K, 16180 kPa | 436.9
323.84 K, 12090 kPa | 444.8
323.88 K, 100 kPa | 449.5
323.93 K, 4070 kPa | 447.2
323.94 K, 16080 kPa | 443.3
324.01 K, 8060 kPa | 445.8
333.88 K, 100 kPa | 456.4
333.96 K, 4050 kPa | 453.6
334 K, 8050 kPa | 452.1
334.05 K, 12060 kPa | 450.5
334.11 K, 16170 kPa | 448

CCCCCCCCCC(=O)OC [methyl decanoate] + CCCCCCCCCCCC(=O)OC
[1], x2 = 0
Details | molar heat capacity at constant pressure [J/K/mol]
313.71 K, 100 kPa | 383.9
313.82 K, 4070 kPa | 382.1
313.83 K, 8030 kPa | 380.5
313.99 K, 12010 kPa | 378.5
314.01 K, 16140 kPa | 376.6
324.79 K, 100 kPa | 387.6
324.79 K, 4070 kPa | 386
325.01 K, 8030 kPa | 384.4
325.06 K, 12010 kPa | 382.5
325.2 K, 16140 kPa | 379.3
334.12 K, 100 kPa | 393.2
334.33 K, 8030 kPa | 388.3
334.53 K, 4070 kPa | 390.3
334.6 K, 12010 kPa | 386.2
334.84 K, 16140 kPa | 384.2
